Test results published in US7294643B2, “UK-1 analogues: methods of preparation and use” (Board of Regents, The University of Texas System, priority 2002, dated 2007).
pIC50: −log10 of the molar value. Like-named read-outs stand apart in the source and are kept apart here. Values belong to the molecule of their own block, whether it stands above or below them.

Columns and labels:
[1] = alamarBlue cytotoxicity, range over three cell lines; assay type: cell-based; details: human; range of concentrations required to inhibit growth of MCF-7, HT-29, and PC-3 cells by 50%
Protocol: (§1) Cytotoxicity Assays. Cell culture cytotoxicity assays were performed using the. alamarBlue method, as described by Ahmed et al., J. Immun. Methods 1994, 170, 211-224, which is incorporated herein by reference. Briefly, aliquots of 100 μL of cell suspension (1.0-2.5×10^3 cells) was placed in 96-well microtiter plates in an atmosphere of 5% CO2 at 37° C. After 24 hours, 100 μL of culture medium and 2 μL of compound in vehicle (culture media with 40% pyridine) or vehicle alone were added, and the plates incubated an additional 72 hours. The final pyridine concentration in all cases was 0.4%; at this pyridine concentration there was no affect on the growth of cells compared to cells in culture media without added pyridine. […] After the culture media had been removed from each well, 200 μL of fresh media and 20 μL of 90% alamarBlue reagent were added, followed by an additional 6 h incubation. The fluorescent intensity was measured using a Spectrafluor Plus plate reader with excitation at 530 nm and emission at 590 nm. Results are reported as IC50 values, the average concentration required to produce a decrease of fluorescent intensity of 50% relative to vehicle-treated controls in two separate determinations.

[2] = test system: Staphylococcus aureus ATCC 29213; assay: Antimicrobial bioassay, S. aureus; assay type: cell-based; details: Staphylococcus aureus, ATCC29213; for pIC50: 50% growth of test organism, NA = no activity observed at concentrations up to 50 μg/mL, read-out: Antibacterial IC50 S. aureus
Protocol: (§2) Antimicrobial Bioassay: Staphylococcus aureus ATCC 29213 and methicillin-resistant S. aureus ATCC 43300 (MRS) were obtained from the American Type Culture Collection (Rockville, Md.) and stored on agar slants at 4° C. until needed. Susceptibility testing was performed using a modified version of the NCCLS methods: “Methods for Dilution Antimicrobial Susceptibility Tests for Bacteria that Grow Aerobically,” M7-A4, Vol. 17, No. 2, NCCLS, (1997) and “Reference Method for Broth Dilution Antifungal Susceptibility Testing of Yeasts; Approved Standard,” M27-A, Vol. 17, No. 9, NCCLS, (1997), both of which are incorporated herein by reference. Microorganisms were subcultured prior to the assay by suspending cells from the slant in Eugon broth (BBL, Maryland) and incubating for 24 hours at 37° C. Inocula were prepared by diluting the subcultured organism in its incubation broth after comparison to the 0.5 McFarland Standard (a BaSO4 suspension) to afford final inocula ranges of S. aureus: 1.0-5.0×10^5 and MRS: 0.2-6.0×10^5 CFU/ml. Test compounds were dissolved in DMSO, serially-diluted using normal saline, and transferred in duplicate to 96 well flat-bottomed microtiter plates. The microbial inocula were added to the samples to achieve a final volume of 200 μl and final compound concentrations starting with 50 μg/ml. Drug [Ciprofloxacin (ICN Biomedicals, Ohio)] as well as growth and blank (media only) controls were added to each test plate. Plates were read at 630 nm using the EL-340 Biokinetics Reader (Bio-Tek Instruments, Vermont) prior to and after incubation at 37° C. for 24 hours. Percent growth was calculated and plotted versus concentration to afford the IC50, or sample concentration that affords 50% growth of the organism relative to controls.

[3] = test system: methicillin-resistant S. aureus ATCC 43300; assay: Antimicrobial bioassay, methicillin-resistant S. aureus; assay type: cell-based, Staphylococcus aureus; details: Staphylococcus aureus, ATCC43300; for pIC50: 50% growth of test organism, NA = no activity observed at concentrations up to 50 μg/mL, read-out: Antibacterial IC50 Meth-resist S. aureus; for IC50: Methacilline-resistant Staph. Aureus, growth inhibited by 50%, read-out: Staph. aureus IC50
Protocol: as §2

[4] = test system: double-stranded DNA oligonucleotide; assay: DNA binding by ESI-MS; parameters: key: MetalDepend.: all ligand-DNA complex ions also contained a metal ion.; None: no ligand-DNA complex ions observed.; MetalIndepend.: ligand-DNA and ligand-DNA-metal ion complex ions observed; details: ligand-DNA complex ions, presence or absence of added NiCl2
MCF-7 cells = assay: alamarBlue cytotoxicity assay, MCF-7; assay type: cell-based; details: Homo sapiens, MCF7; MCF-7, alamarBlue, 72 h
Protocol: as §1

HT-29 cells = assay: alamarBlue cytotoxicity assay, HT-29; assay type: cell-based; details: Homo sapiens; HT-29, alamarBlue, 72 h
Protocol: as §1

HL60 cells = assay: alamarBlue cytotoxicity assay, HL60; assay type: cell-based, human; details: Homo sapiens
Protocol: as §1

PC-3 cells = assay: alamarBlue cytotoxicity assay, PC-3; assay type: cell-based, human; details: Homo sapiens, PC-3, 72 h, PC-3, alamarBlue
Protocol: as §1

[5] = alamarBlue cytotoxicity, range over four cell lines; assay type: cell-based; details: human
Protocol: as §1, with “hours.” for “hours. The final pyridine concentration in all cases was 0.4%; at this pyridine concentration there was no affect on the growth of cells compared to cells in culture media without added pyridine.”, “nm.” for “nm. Results are reported as IC50 values, the average concentration required to produce a decrease of fluorescent intensity of 50% relative to vehicle-treated controls in two separate determinations.”

[6] = Metal ion binding by continuous variation, Mg2+; details: for Association constant for metal ion binding: Mg^2+, methanol, 1:1 complex
Protocol: (§3) Previous work indicated the metal ion binding mechanism of UK-1, so the method of continuous variation was used to determine the ability of selected UK-1analogues to bind a variety of metal ions. Methanolic solutions of UK-1 or UK-1 analogues and metal ion salts [Ca(NO3)2, Mg(NO3)2, Zn(NO3)2, or Fe(NO3)3] at various molar ratios, and 20 μM combined total concentration, were prepared and the absorbance at 418 nm was determined. […] Compound 2.1 does bind with Ca^2+ and Zn^2+ better than UK-1.
(§4) Continuous variation plots. A 100 μM solution of UK-1 or analogue and 100 AM solutions of Ca(NO3)2, Mg(NO3)2, Zn(NO3)2, or Fe(NO3)3 were prepared in methanol. From these stock solutions, 15 samples (1 mL) of varying mole fraction of the metal ion were prepared at a constant, combined concentration of 20 μM for the ligand and the metal ion. The change in absorbance was monitored from 500 to 200 nm for each sample using as a reference a 1 mL solution containing the same concentration of ligand as the sample being measured but without the metal ion. The maximum absorbance change was typically around 418 nm but varied somewhat for each metal ion. The absorbance at 418 nm was plotted as a function of the mole fraction of the metal ion and the maximum absorbance change was determined. The absorbance of a sample containing the metal ion concentration corresponding to this maximum change and a 15 fold excess of metal ion at this ligand concentration, subtracted from a reference containing the same concentration of ligand but no metal ion was used to normalize the curve and obtain the conditional formation constant as described in the paper to Likussar, W.; Boltz, D. F. Anal. Chem. 1971, 43, 1265-1272, which is incorporated herein by reference.

[7] = Metal ion binding by continuous variation, Ca2+; details: Ca^2+, methanol, 1:1 complex
Protocol: as §3, §4

[8] = Metal ion binding by continuous variation, Zn2+; details: for Association constant for metal ion binding: Zn^2+, methanol, 1:1 complex
Protocol: as §3, §4

[9] = Metal ion binding by continuous variation, Fe3+; details: Fe^3+, methanol, 1:1 complex
Protocol: as §3, §4

Pseudomonas aeruginosa = assay: Antimicrobial bioassay, P. aeruginosa; assay type: cell-based; details: P. aeruginosa
Cryptococcus neoformans = assay: Antimicrobial bioassay, Cryptococcus neoformans; assay type: cell-based
Candida albicans = assay: Antimicrobial bioassay, Candida albicans; assay type: cell-based
[10] = test system: gram-positive or gram negative bacteria; details: cited from earlier work
yeast, or fungi = details: cited from earlier work

Compound: O=C(O)c1cn(C2CC2)c2cc(N3CCNCC3)c(F)cc2c1=O [Ciprofloxacin]
IC50 at 72 h [1]: > 100 µM
pIC50 [2]: 6.35
pIC50 [3]: 6.35
IC50 [3]: 0.45 µg/mL
DNA-Binding ESI-MS [4]: MetalIndepend.^f

Compound: COC(=O)c1cccc2[nH]c(-c3cccc4oc(-c5ccccc5O)nc34)nc12 [Compound 2.1, Methyl 2-[2-(2-hydroxyphenyl)-1,3-benzoxazol-4-yl]-1H-benz imidazole-4-carboxylate]
pIC50 (MCF-7 cells): < 4.00
pIC50 (HT-29 cells): < 4.00
pIC50 (HL60 cells; HL-60, 72 h, HL60, alamarBlue, 72 h): 4.15
pIC50 (PC-3 cells): < 4.00
IC50 at 72 h [5]: ≥ 70 µM
Association constant for metal ion binding [6]: 40000 M⁻¹
Association constant for metal ion binding [7]: 100000 M⁻¹
Association constant for metal ion binding [8]: 3.2e+06 M⁻¹
Association constant for metal ion binding [9]: 10000 M⁻¹

Compound: COC(=O)c1cccc2oc(-c3ccccc3OCc3ccccc3)nc12 [Compound 2.5, Methyl 2-[2-(benzyloxy)phenyl]-1,3-benzoxazole-4-carboxylate]
IC50 at 72 h [5]: > 100 µM

Compound: O=C(O)c1cccc2[nH]c(-c3ccccc3OCc3ccccc3)nc12 [Compound 2.9, 2-[2-(benzyloxy)phenyl]-1H-benzimidazole-4-carboxylic acid]
IC50 at 72 h [5]: > 100 µM
pIC50 [2]: 3.99
pIC50 [3]: 3.99

Compound: COC(=O)c1cccc2nc(-c3ccccc3O)oc12 [Compound 2.16, Methyl 2-(2-Hydroxy-phenyl)-benzooxazole-7-carboxylate]
IC50 at 72 h [5]: > 100 µM

Compound: O=C(O)c1cccc2oc(-c3cccc4oc(-c5ccccc5O)nc34)nc12 [DMUK-1]
activity against Gram-positive and Gram-negative bacteria [10]: have shown activity

Compound: COC(=O)c1cccc2oc(-c3cccc4oc(-c5ccccc5OC)nc34)nc12 [MUK-1]
activity against Gram-positive and Gram-negative bacteria [10]: have shown activity
activity against yeast and filamentous fungi (yeast, or fungi): active

Second part, led by results:

pIC50 [2]: 4.37
DNA-Binding ESI-MS [4]: MetalIndepend.^f
Compound: O=C(O)c1cccc2oc(-c3ccccc3OCc3ccccc3)nc12 [Compound 2.6, 2-[2-(benzyloxy)phenyl]-1,3-benzoxazole-4-carboxylic acid]
IC50 at 72 h [5]: > 100 µM
IC50 at 72 h [1]: > 100 µM
pIC50 [3]: 4.54
IC50 [3]: 29 µg/mL

IC50 ([2]; S. aureus, read-out: IC50): > 50 µg/mL
IC50 (Pseudomonas aeruginosa): > 50 µg/mL
IC50 (Cryptococcus neoformans): > 50 µg/mL
IC50 (Candida albicans): > 50 µg/mL
Association constant for metal ion binding [6]: 320000 M⁻¹
Association constant for metal ion binding [7]: 6300 M⁻¹
Association constant for metal ion binding [8]: 1.3e+06 M⁻¹
Association constant for metal ion binding [9]: 7900 M⁻¹
DNA-Binding ESI-MS [4]: MetalDepend.^d
Compound: COC(=O)c1cccc2oc(-c3ccccc3O)nc12 [Compound 2.13, Methyl 2-(2-hydroxyphenyl)-benzoxazole-4-carboxylate]
pIC50 (MCF-7 cells): 5.82
pIC50 (HT-29 cells): 5.04
pIC50 (HL60 cells; HL-60, HL60): 5.24
pIC50 (PC-3 cells): 6.06
IC50 at 72 h [5]: 0.88 to 9.1 µM
IC50 [3]: > 50 µg/mL

Mg^2+ ion complexation ([6]; result in words): does not appear to complex Mg^2+ ions
Zn^2+ ion complexation ([8]; result in words): does appear to form complexes with Zn^2+
Compound: Oc1ccccc1-c1nc2ccccc2o1 [Compound 2.17, 2-(2′-hydroxyphenyl)benzoxazole]
IC50 at 72 h [5]: > 100 µM

DNA-Binding ESI-MS [4]: None^e
Compound: Oc1ccccc1-c1nc2ccccc2o1 [drawing 10]
IC50 at 72 h [1]: > 100 µM
IC50 [3]: > 50 µg/mL
